Earlier results, collected in US20130191933A1, “METHODS OF TREATING PAIN AND MORPHINE TOLERANCE VIA MODULATION OF HEDGEHOG SIGNALLING PATHWAY” (BOARD OF REGENTS, THE UNIVERSITY OF TEXAS SYSTEM, priority 2010, published 2013).

Tests used:
[1] = biological target: Smo (Homo sapiens, UniProt Q99835); conditions: cited from earlier work
[2] = tested on: Gli-mediated transcription; conditions: cited from earlier work; for Gli-mediated transcription: in a variety of cell types (Cur-61414: cell and tissues types; Robotnikinin: also synthetic human tissue)
[3] = tested on: Glil,2-mediated transcription in HaCat cells; conditions: cited from earlier work
[4] = tested on: Ptchl and BCL2 in HaCaT cells; conditions: cited from earlier work

Chain of Smo (Q99835 28-787): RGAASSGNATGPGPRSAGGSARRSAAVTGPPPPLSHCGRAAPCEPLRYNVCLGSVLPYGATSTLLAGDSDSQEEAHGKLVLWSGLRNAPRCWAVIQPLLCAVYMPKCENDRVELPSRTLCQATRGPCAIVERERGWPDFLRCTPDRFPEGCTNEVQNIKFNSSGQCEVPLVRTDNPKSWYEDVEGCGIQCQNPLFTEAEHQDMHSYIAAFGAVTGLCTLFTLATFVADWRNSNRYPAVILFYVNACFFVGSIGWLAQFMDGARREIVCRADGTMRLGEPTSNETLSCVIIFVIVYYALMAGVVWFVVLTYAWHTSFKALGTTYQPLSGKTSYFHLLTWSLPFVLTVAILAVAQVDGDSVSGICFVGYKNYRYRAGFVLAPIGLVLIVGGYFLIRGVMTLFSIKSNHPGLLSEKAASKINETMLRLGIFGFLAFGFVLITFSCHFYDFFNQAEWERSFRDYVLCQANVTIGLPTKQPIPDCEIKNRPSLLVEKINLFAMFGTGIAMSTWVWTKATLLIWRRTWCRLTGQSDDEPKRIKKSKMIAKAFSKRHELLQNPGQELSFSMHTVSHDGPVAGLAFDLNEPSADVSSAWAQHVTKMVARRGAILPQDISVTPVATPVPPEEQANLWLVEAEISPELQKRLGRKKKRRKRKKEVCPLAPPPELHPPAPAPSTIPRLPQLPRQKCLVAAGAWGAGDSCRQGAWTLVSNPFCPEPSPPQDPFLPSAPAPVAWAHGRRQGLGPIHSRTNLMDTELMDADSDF

| SMILES | targeting / binding of Smo [1] | Gli-mediated transcription [2] | Glil,2-mediated transcription [3] | transcription of Ptchl and BCL2 [4] | site of action in the pathway [2] |
| --- | --- | --- | --- | --- | --- |
| CC(C)[C@@H](O)CC[C@@H](C)[C@H]1CC[C@H]2[C@@H]3CC=C4C[C@@H](O)CC[C@]4(C)[C@H]3CC[C@]12C [24(S)-Hydroxycholesterol] | Does not bind directly to Smo | Activates Gli-mediated transcription in a variety of cell types |  |  |  |
| C/C1=C\CC(C)(C)/C=C/C(=O)/C(C)=C/CC1 [Zerumbone] |  |  | Inhibits Glil,2-mediated transcription in HaCat cells | Inhibits transcription of Ptchl and BCL2 in HaCaT cells |  |
| CS(=O)(=O)c1ccc(C(=O)Nc2ccc(Cl)c(-c3ccccn3)c2)c(Cl)c1 [GDC-0449] | Targets Smo | Represses Gli-medicated transcription in a variety of cell types |  |  |  |
| CC(C)CC[C@H](O)[C@@H](C)[C@H]1CC[C@H]2[C@@H]3CC=C4C[C@@H](O)CC[C@]4(C)[C@H]3CC[C@]12C [22(S)-Hydroxycholesterol] | Does not bind directly to Smo | Activates Gli-mediated transcription in a variety of cell types |  |  |  |
| CCc1ccc(-c2ccc(/C=C/C(=O)N3CCCCC3)cc2)nc1 [SANT4] | Targets Smo | Represses Gli-medicated transcription in a variety of cell types |  |  |  |
| O=C1NCc2c1c1c3ccccc3[nH]c1c1[nH]c3ccccc3c21 [Staurosporinone] |  |  | Inhibits Glil,2-mediated transcription in HaCat cells | Inhibits transcription of Ptchl and BCL2 in HaCaT cells |  |
| COc1cccc(CN(C(=O)CC(C)(C)C)[C@H]2C[C@@H](C(=O)N3CCNCC3)N(Cc3ccc4c(c3)OCO4)C2)c1 [Cur-61414] | Targets Smo |  |  |  |  |
| CC(C)CCC[C@](C)(O)[C@H]1CC[C@H]2[C@@H]3CC=C4C[C@@H](O)CC[C@]4(C)[C@H]3CC[C@@]21C [20α-Hydroxycholesterol] | Does not bind directly to Smo | Activates Gli-mediated transcription in a variety of cell types |  |  |  |
| c1ccc2c(Oc3nc(Nc4ccc(N5CCOCC5)cc4)c4ncn(C5CCCCC5)c4n3)cccc2c1 [Purmorphamine] | Binds Smo and competes directly with cyclopamine-Smo | Activates Gli-mediated transcription in a variety of cell types |  |  |  |
| CNC1CCC(N(Cc2cccc(-c3ccncc3)c2)C(=O)c2sc3ccccc3c2Cl)CC1 (stereo not drawn) [SAG] | Binds Smo and competes directly with cyclopamine-Smo | Activates Gli-mediated transcription in a variety of cell types |  |  |  |
| CCOc1cc(C(=O)Nc2ccc(Cl)c(-c3nc4ccccc4[nH]3)c2)cc(OCC)c1OCC [SANT2] | Targets Smo | Represses Gli-medicated transcription in a variety of cell types |  |  |  |
| C[C@]12C(=O)C=CCC1=CC[C@@H]1[C@@H]2CC[C@]2(O)C(=O)O[C@@]3(C)[C@H]4C[C@]5(C)[C@@H](CO[C@@]16O[C@@]32[C@H]5C6=O)C(=O)O4 [Physalin B] |  |  | Inhibits Glil,2-mediated transcription in HaCat cells | Inhibits transcription of Ptchl and BCL2 in HaCaT cells |  |
| CN(C)c1ccccc1CN1CCCN(Cc2ccccc2N(C)C)C1c1ccncc1 [GANT61] |  | Represses Gli-medicated transcription in a variety of cell types |  |  | Acts downstream of Smo and Sufu |
| C[C@H](CCCC(C)(C)O)[C@H]1CC[C@H]2[C@@H]3CC=C4C[C@@H](O)CC[C@]4(C)[C@H]3CC[C@]12C [25-Hydroxycholesterol] | Does not bind directly to Smo | Activates Gli-mediated transcription in a variety of cell types |  |  |  |
| c1cc(-c2sc(-c3ccncc3)c(-c3ccncc3)c2-c2ccncc2)ccn1 [GANT58] |  | Represses Gli-medicated transcription in a variety of cell types |  |  | Acts downstream of Smo and Sufu |
| CC1=C2C[C@H]3[C@@H](CC=C4CC(=O)CC[C@@]43C)[C@@H]2CC[C@]12O[C@@H]1C[C@H](C)CN(CCNC(=O)CCCCCNC(=O)CCc3ccccc3)[C@H]1[C@H]2C [KAAD-cyclopamine] | target Smo |  |  |  |  |
| Cc1nn(-c2ccccc2)c(C)c1/C=N/N1CCN(Cc2ccccc2)CC1 [SANT1] | Targets Smo | Represses Gli-medicated transcription in a variety of cell types |  |  |  |
| C[C@@]12C[C@H]3OC(=O)[C@@H]1CO[C@]14O[C@]5([C@H]2C1=O)[C@@](O)(CC[C@H]1[C@H]4C[C@H]2O[C@]24CC=CC(=O)[C@]14C)C(=O)O[C@@]35C [Physalin F] |  |  | Inhibits Glil,2-mediated transcription in HaCat cells | Inhibits transcription of Ptchl and BCL2 in HaCaT cells |  |
| CC1=C2C[C@H]3[C@@H](CC[C@@H]4C[C@H](NS(C)(=O)=O)CC[C@@]43C)[C@@H]2CC[C@@]2(C1)O[C@@H]1C[C@H](C)CN[C@H]1[C@H]2C [IPI-926] | Targets Smo | Represses Gli-medicated transcription in a variety of cell types |  |  |  |
